Measured values reported in patent US12559449B2, “Aromatic ring or heteroaromatic ring derivatives, preparation method therefor and use thereof” (ZHEJIANG HISUN PHARMACEUTICAL CO., LTD., priority 2019, dated 2026).
Like-named read-outs stand apart in the source and are kept apart here.

Assays:
human AT2R = target: T1, human AT2R (Homo sapiens, UniProt P50052); assay: Antagonistic activity on the binding of human AT2R ligand (Tag-lite HTRF ligand binding, Tb-labeled-AT2R cells); settings: red agonist fluorescent ligand, 1 hour room temperature
T1 construct: Tb (terbium) label on the receptor; expressed in transfected cells
T1 sequence (P50052 1-363): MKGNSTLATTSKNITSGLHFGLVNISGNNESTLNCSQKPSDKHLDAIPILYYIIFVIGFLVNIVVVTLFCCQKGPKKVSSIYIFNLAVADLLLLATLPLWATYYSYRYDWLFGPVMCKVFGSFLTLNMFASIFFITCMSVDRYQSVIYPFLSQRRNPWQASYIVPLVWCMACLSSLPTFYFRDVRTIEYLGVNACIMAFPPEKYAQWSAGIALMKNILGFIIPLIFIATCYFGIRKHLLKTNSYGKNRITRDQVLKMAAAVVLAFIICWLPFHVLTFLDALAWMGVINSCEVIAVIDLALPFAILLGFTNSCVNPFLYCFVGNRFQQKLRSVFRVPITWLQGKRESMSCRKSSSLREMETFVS
Experimental: Test Example 1 Test of the Antagonistic Activity of the Compound of the Present Disclosure on the Binding of Human AT2R Ligand
Angiotensin II Type 2 Receptor (AT2R) is involved in neuron differentiation and regeneration, cell proliferation and angiogenesis, and maintenance of bone mass. […] The following method uses the AT2 ligand binding test to study the degree of antagonism of the compounds of the present disclosure to AT2R.
2. Reagent Preparation • (1) 10 mM of angiotensin II human: 10 mg of Angiotensin II human (purity 99.09%) was dissolved in 0.947 mL of deionized water, aliquoted and stored at −80° C.; • (2) Preparation of compound stock solution
3. […] 4. Experimental Results

[1] = Metabolic stability in rat liver microsomes; assay type: in vitro ADME; settings: pH 7.4; rat liver microsomes 0.5 mg/mL, 1 μM compound, NADPH 1 mM, 0-60 min; read-out: half-life/(T1/2, min)
Experimental: Test Example 2. Study on the Metabolic Stability of the Compounds of the Present Disclosure in Rat Liver Microsomes
The purpose of this experimental study is to study the metabolic stability of the compounds of the present disclosure in rat liver microsomes.
The test compounds were co-incubated with rat liver microsomes, and the coenzyme NADPH was added to initiate the reaction. At 0, 5, 15, 30, and 60 minutes, 20 μL of incubation solution was taken out and transferred to 200 μL of acetonitrile containing internal standard to stop the reaction. After protein precipitation, it was centrifuged at 3,700 rpm for 10 minutes. The supernatant was taken and analyzed by LC-MS/MS method after being diluted at 1:1 with water. According to the elimination half-life of the test compound in the incubation system, the in vitro clearance rate was calculated. Midazolam was used as the internal reference compound and incubated for 2 copies in parallel.
The ratio of analyte/internal standard peak area (Aanalyte/AIS) was obtained from the instrument, and the remaining percentage (% Control) was calculated as the ratio of Aanalyte/AIS in the non-zero time point sample to the zero time point sample. Ln (% Control) versus incubation time was plotted and subjected to a linear fitting. The clearance constant (k, min-) and clearance half-life (T1/2, min) of the test compounds were calculated by the following equations.
[formula] 4. Experimental Results

AT1R = target: T2, AT1R (Homo sapiens, UniProt P30556); assay: Antagonistic activity on AT1R, same method with Tb-labeled-AT1R cells; assay type: binding
T2 construct: Tb (terbium) label on the receptor; expressed in transfected cells
T2 sequence (P30556 1-359): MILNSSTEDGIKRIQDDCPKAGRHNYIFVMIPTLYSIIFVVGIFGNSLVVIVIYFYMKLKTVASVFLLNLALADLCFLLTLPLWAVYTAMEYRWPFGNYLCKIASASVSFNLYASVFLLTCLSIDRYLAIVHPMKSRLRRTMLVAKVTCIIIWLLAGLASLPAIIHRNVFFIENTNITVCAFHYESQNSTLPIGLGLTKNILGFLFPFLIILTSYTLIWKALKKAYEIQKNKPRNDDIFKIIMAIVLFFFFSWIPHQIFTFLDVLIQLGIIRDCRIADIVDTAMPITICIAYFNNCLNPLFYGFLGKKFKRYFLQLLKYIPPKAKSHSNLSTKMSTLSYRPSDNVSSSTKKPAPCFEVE

[2] = Pharmacokinetics in SD rats, intravenous injection or intragastric administration; assay type: in vivo; settings: for half-life / MRT / bioavailability / Cmax: male, Sprague-Dawley, rat, plasma; for half-life: read-out: half-life T1/2 (converted); for MRT: read-out: residence time MRT; for bioavailability: read-out: bioavailability F; for Cmax: read-out: drug concentration in blood, Cmax
Excerpt: Test Example 3. Study on Oral Pharmacokinetics of the Compounds of the Present Disclosure in SD Rats
SD rats were taken as the test animals. The LC/MS/MS method was used to determine the intravenous injection or intragastric administration of the compounds of the present disclosure in rats, and to determine the drug concentration in plasma at different time points to study the pharmacokinetic characteristics of the compounds of the present disclosure in rats.
Experimental drugs: Olodanrigan, compounds 12, 14, 15 and 16 of the present disclosure;
Animals: 30 healthy adult Sprague Dawley (SD) male rats, purchased from Weitong Lihua Experimental Animal Technology Co. Ltd., production license number: 11400700271077.
An appropriate amount of samples were weighed, and added with DMA, solutol HS 15 (30%, w/v) and normal saline respectively, and then subjected to ultrasound and filtered through PTFE membrane to make a 0.2 mg/mL solution.
An appropriate amount of samples were weighed, added with 0.5% sodium carboxymethyl cellulose (CMC-Na) (containing 0.5% Tween 80), and ultrasonically prepared into a 1 mg/mL suspension. […]
About 0.2 mL of blood was collected from the jugular vein before administration and at 0.083 hours, 0.25 hours, 0.5 hours, 1 hour, 2 hours, 4 hours, 8 hours, 12 hours, and 24 hours after administration, and heparin sodium was used for anticoagulation. The blood samples were collected on ice and centrifuged to separate the plasma (centrifugation conditions: 1500 g, 10 minutes). The collected plasma was stored at −40 to −20° C. before analysis.
10 μL of plasma sample was taken and added with 400 μL of acetonitrile (comprising internal standard working solution which contained verapamil 5 ng/mL and glibenclamide 50 ng/mL). It was vortexed for 10 minutes, centrifuge at 3700 rpm for 10 minutes. 70 μL of the supernatant was taken and added with 70 μL of water, and vortexed for 10 minutes. 2 μL of the mixed solution was taken and injected into LC-MS/MS for sample analysis.

[3] = oral (3 mg/kg) versus injection (1 mg/kg)
[4] = 3 mg/kg, oral (mg/kg), dose not given
[5] = oral (mg/kg), dose figure not given, versus injection (1 mg/kg)

CN(C(=O)C(c1ccccc1)c1ccccc1)c1ccc(N2CCCOc3ccc(F)cc32)cc1C(=O)O [Compound 4, 5-(7-fluoro-3,4-dihydrobenzo[b][1,4]oxazepine-5(2H)-yl)-2-(N-methyl-2,2-diphenylacetamido)benzoic acid]
IC50 (human AT2R): 37 nM
half-life at 1 μM [1]: 185 min
IC50 (AT1R): > 10 µM

CN(C(=O)C(c1ccccc1)c1ccccc1)c1cnc(N2CCCOc3ccc(F)cc32)cc1C(=O)O [Compound 5, 2-(7-fluoro-3,4-dihydrobenzo[b][1,4]oxazepine-5(2H)-yl)-5-(N-methyl-2,2-diphenylacetamido)isonicotinic acid]
IC50 (human AT2R): 10 nM
IC50 (AT1R): > 10 µM

CN(C(=O)C(c1ccccc1)c1ccccc1)c1cnc(N2CCCOc3cc(F)c(F)cc32)cc1C(=O)O [Compound 6, 2-(7,8-difluoro-3,4-dihydrobenzo[b][1,4]oxazepine-5(2H)-yl)-5-(N-methyl-2,2-diphenylacetamido)isonicotinic acid]
IC50 (human AT2R): 26 nM
IC50 (AT1R): > 10 µM

CN(C(=O)C(c1ccccc1)c1ccccc1)c1ccc(N2CCCOc3ccc(F)cc32)nc1C(=O)O [Compound 8, 6-(7-fluoro-3,4-dihydrobenzo[b][1,4]oxazepine-5(2H)-yl)-3-(N-methyl-2,2-diphenylacetamido)picolinic acid]
IC50 (human AT2R): 28 nM
IC50 (AT1R): > 10 µM

O=C(O)c1cc(N2CCCOc3ccc(F)cc32)ncc1-c1nc2ccccc2o1 [Compound 12, 5-(benzo[d]oxazol-2-yl)-2-(7-fluoro-3,4-dihydrobenzo[b][1,4]oxazepine-5(2H)-yl)isonicotinic acid]
half-life at 1 μM [1]: 288 min
area under curve AUO0-∞ ([2]; injection (1 mg/kg)): 16200 ± 3530 ng·h/mL
half-life ([2]; iv, injection (1 mg/kg)): 8.1 ± 2.1 h
MRT ([2]; iv, injection (1 mg/kg)): 7.3 ± 1.5 h
bioavailability [2, 3]: 83.1%
Cmax ([2]; oral (3 mg/kg)): 8650 ± 6020 ng/mL
half-life ([2]; oral (3 mg/kg)): 4.7 ± 0.3 h
MRT ([2]; oral (3 mg/kg)): 6.1 ± 0.5 h
area under curve AUO0-∞ ([2]; oral (3 mg/kg)): 40400 ± 14272 ng·h/mL

O=C(O)c1cc(N2CCCOc3ccc(F)cc32)ncc1-c1nc2cc(F)ccc2o1 [Compound 14, 2-(7-fluoro-3,4-dihydrobenzo[b][1,4]oxazepine-5(2H)-yl)-5-(5-fluorobenzo[d]oxazol-2-yl)isonicotinic acid]
half-life at 1 μM [1]: 600 min
area under curve AUO0-∞ ([2]; injection (1 mg/kg)): 13800 ± 1370 ng·h/mL
half-life ([2]; iv, injection (1 mg/kg)): 4.7 ± 0.4 h
MRT ([2]; iv, injection (1 mg/kg)): 4.5 ± 0.2 h
bioavailability [2, 3]: 105%
Cmax ([2]; oral (3 mg/kg)): 14300 ± 5130 ng/mL
half-life ([2]; oral (3 mg/kg)): 3.6 ± 0.2 h
MRT ([2]; oral (3 mg/kg)): 4.7 ± 0.3 h
area under curve AUO0-∞ ([2]; oral (3 mg/kg)): 43400 ± 11173 ng·h/mL

O=C(O)c1cc(N2CCCOc3ccc(F)cc32)ncc1-c1nc2ccc(F)cc2o1 [Compound 15, 2-(7-fluoro-3,4-dihydrobenzo[b][1,4]oxazepine-5(2H)-yl)-5-(6-fluorobenzo[d]oxazol-2-yl)isonicotinic acid]
half-life at 1 μM [1]: 160 min
area under curve AUO0-∞ ([2]; injection (1 mg/kg)): 12100 ± 751 ng·h/mL
half-life ([2]; iv, injection (1 mg/kg)): 4.5 ± 0.4 h
MRT ([2]; iv, injection (1 mg/kg)): 4.5 ± 0.4 h
bioavailability [2, 3]: 89.9%
Cmax ([2]; oral (3 mg/kg)): 7050 ± 2640 ng/mL
half-life ([2]; oral (3 mg/kg)): 4.2 ± 0.4 h
MRT ([2]; oral (3 mg/kg)): 5.2 ± 0.4 h
area under curve AUO0-∞ ([2]; oral (3 mg/kg)): 32400 ± 6514 ng·h/mL

N#Cc1ccc2nc(-c3cnc(N4CCCOc5ccc(F)cc54)cc3C(=O)O)oc2c1 [Compound 16, 5-(6-cyanobenzo[d]oxazol-2-yl)-2-(7-fluoro-3,4-dihydrobenzo[b][1,4]oxazepine-5(2H)-yl)isonicotinic acid]
half-life at 1 μM [1]: 598 min
area under curve AUO0-∞ ([2]; injection (1 mg/kg)): 20800 ± 1740 ng·h/mL
Cmax [2, 4]: 5250 ± 315 ng/mL
half-life [2, 4]: 3.7 ± 0.4 h
MRT [2, 4]: 5.5 ± 0.4 h
half-life ([2]; iv, injection (1 mg/kg)): 3.3 ± 0.2 h
MRT ([2]; iv, injection (1 mg/kg)): 3.2 ± 0.3 h
bioavailability [2, 5]: 41.3%
area under curve AUO0-∞ ([2]; oral (mg/kg), dose not given): 25800 ± 6100 ng·h/mL

COc1ccc2c(c1OCc1ccccc1)C[C@@H](C(=O)O)N(C(=O)C(c1ccccc1)c1ccccc1)C2 [olodanrigan, reference compound]
half-life at 1 μM [1]: 96.3 min
area under curve AUO0-∞ ([2]; injection (1 mg/kg)): 1230 ± 96 ng·h/mL
Cmax [2, 4]: 470 ± 197 ng/mL
half-life [2, 4]: 1.5 ± 0.3 h
MRT [2, 4]: 2.6 ± 1 h
half-life ([2]; iv, injection (1 mg/kg)): 1.6 ± 0.3 h
MRT ([2]; iv, injection (1 mg/kg)): 0.92 ± 0.16 h
bioavailability [2, 5]: 12.1%
area under curve AUO0-∞ ([2]; oral (mg/kg), dose not given): 1483 ± 715 ng·h/mL
IC50 (AT1R): > 10 µM
